# Measured values: ChEMBL document CHEMBL1158897, “New alkaloids from Cephalotaxus fortunei” (J Nat Prod, 2003)
# Tested on: KB
# Experiment: Cytotoxicity against human KB cells after 72 hrs by neutral red staining
# Type: functional, cell-based
row,Structure (SMILES),IC50 [mg/L]
1,COC1=C[C@]23CCC[N@@+]2([O-])CCc2cc4c(cc2[C@@H]3[C@@H]1O)OCO4,14
2,COC1=C[C@]23CCC[N@@+]2([O-])C[C@H](O)c2cc4c(cc2[C@@H]3[C@@H]1O)OCO4,31
3,COC1=C[C@]23CCC[N@+]2([O-])CCc2cc4c(cc2[C@@H]3[C@@H]1O)OCO4,30
4,COC1=C2c3cc4c(cc3CCN3CCC[C@]23CC1O)OCO4 (some centres undefined) [ISOCEPHALOTAXINE],15
